In ChEMBL document CHEMBL3885881, “DrugMatrix”:

Organism: Rattus norvegicus
Experiment: DrugMatrix - Regimen: Daily Repeat
Type: toxicity, organism-based, Sprague-Dawley
Parameters: regimen Daily Repeat, gender Male, age 6-8 weeks
Conditions: in vivo, po, route oral GAVAGE, vehicle 100 % WATER; for ABSOLUTE BASOPHIL / ABSOLUTE EOSINOPHIL / ABSOLUTE LYMPHOCYTE / ABSOLUTE MONOCYTE / ABSOLUTE SEGMENTED NEUTROPHIL / BASOPHIL / EOSINOPHIL / ERYTHROCYTE COUNT / HEMATOCRIT / HEMOGLOBIN / LEUKOCYTE COUNT / LYMPHOCYTE / MEAN CORPUSCULAR HEMOGLOBIN / MEAN CORPUSCULAR HEMOGLOBIN CONCENTRATION / MEAN CORPUSCULAR VOLUME / MONOCYTE / NEUTROPHIL / NUCLEATED RED BLOOD CELLS / PLATELET COUNT: tissue Blood; for ALANINE AMINOTRANSFERASE / ALBUMIN / ALKALINE PHOSPHATASE / ASPARTATE AMINOTRANSFERASE / BLOOD UREA NITROGEN / CARBON DIOXIDE / CHLORIDE / CHOLESTEROL / CREATINE PHOSPHOKINASE / CREATININE / GLUCOSE / LIPASE / PHOSPHORUS / POTASSIUM / SODIUM / TOTAL BILIRUBIN / TOTAL PROTEIN / URIC ACID: tissue Plasma
[1] = 0 mg/kg, 72 h, dose level Control, time 3 day
[2] = 0 mg/kg, 120 h, dose level Control, time 5 day
[3] = 175 mg/kg, 72 h, dose level High, time 3 day

CC(C)NCC(O)COc1cccc2ccccc12 (stereo unspecified) [PROPRANOLOL]
ABSOLUTE BASOPHIL [1]: 0 CELLS/uL
ABSOLUTE EOSINOPHIL [1]: 46 CELLS/uL
ABSOLUTE LYMPHOCYTE [1]: 10225.67 CELLS/uL
ABSOLUTE MONOCYTE [1]: 319.33 CELLS/uL
ABSOLUTE SEGMENTED NEUTROPHIL [1]: 1242.33 CELLS/uL
BASOPHIL [1]: 0%
EOSINOPHIL [1]: 0.33%
ERYTHROCYTE COUNT [1]: 5.17 x10E6/uL
HEMATOCRIT [1]: 33.43%
HEMOGLOBIN [1]: 12.55 G/DL
LEUKOCYTE COUNT [1]: 11.83 x10E3/uL
LYMPHOCYTE [1]: 86.5%
MEAN CORPUSCULAR HEMOGLOBIN [1]: 24.35 pg
MEAN CORPUSCULAR HEMOGLOBIN CONCENTRATION [1]: 37.57 G/DL
MEAN CORPUSCULAR VOLUME [1]: 64.8 fL
MONOCYTE [1]: 2.67%
NEUTROPHIL [1]: 10.5%
NUCLEATED RED BLOOD CELLS [1]: 0.17 /100WBC
PLATELET COUNT [1]: 1026.17 x10E3/uL
ALANINE AMINOTRANSFERASE [1]: 52.67 u/L
ALBUMIN [1]: 4.17 G/DL
ALKALINE PHOSPHATASE [1]: 331 u/L
ASPARTATE AMINOTRANSFERASE [1]: 92.33 u/L
BLOOD UREA NITROGEN [1]: 15.33 mg/dL
CARBON DIOXIDE [1]: 26.17 mmol/L
CHLORIDE [1]: 103.17 MEQ/L
CHOLESTEROL [1]: 73.67 mg/dL
CREATINE PHOSPHOKINASE [1]: 472.83 u/L
CREATININE [1]: 0.29 mg/dL
GLUCOSE [1]: 178.5 mg/dL
LIPASE [1]: 10.67 u/L
PHOSPHORUS [1]: 12.45 mg/dL
POTASSIUM [1]: 6.35 MEQ/L
SODIUM [1]: 144.27 MEQ/L
TOTAL BILIRUBIN [1]: 0.13 mg/dL
TOTAL PROTEIN [1]: 5.77 G/DL
URIC ACID [1]: 2.08 mg/dL
ABSOLUTE BASOPHIL [2]: 0 CELLS/uL
ABSOLUTE EOSINOPHIL [2]: 23.5 CELLS/uL
ABSOLUTE LYMPHOCYTE [2]: 12797.33 CELLS/uL
ABSOLUTE MONOCYTE [2]: 465.5 CELLS/uL
ABSOLUTE SEGMENTED NEUTROPHIL [2]: 1313.67 CELLS/uL
BASOPHIL [2]: 0%
EOSINOPHIL [2]: 0.17%
ERYTHROCYTE COUNT [2]: 5.76 x10E6/uL
HEMATOCRIT [2]: 36.72%
HEMOGLOBIN [2]: 13.72 G/DL
LEUKOCYTE COUNT [2]: 14.6 x10E3/uL
LYMPHOCYTE [2]: 87.5%
MEAN CORPUSCULAR HEMOGLOBIN [2]: 23.8 pg
MEAN CORPUSCULAR HEMOGLOBIN CONCENTRATION [2]: 37.35 G/DL
MEAN CORPUSCULAR VOLUME [2]: 63.72 fL
MONOCYTE [2]: 3.17%
NEUTROPHIL [2]: 9.17%
NUCLEATED RED BLOOD CELLS [2]: 0.33 /100WBC
PLATELET COUNT [2]: 1270.67 x10E3/uL
ALANINE AMINOTRANSFERASE [2]: 50.5 u/L
ALBUMIN [2]: 4.32 G/DL
ALKALINE PHOSPHATASE [2]: 339.67 u/L
ASPARTATE AMINOTRANSFERASE [2]: 88 u/L
BLOOD UREA NITROGEN [2]: 17 mg/dL
CARBON DIOXIDE [2]: 25 mmol/L
CHLORIDE [2]: 103.83 MEQ/L
CHOLESTEROL [2]: 71.33 mg/dL
CREATINE PHOSPHOKINASE [2]: 281.83 u/L
CREATININE [2]: 0.26 mg/dL
GLUCOSE [2]: 161.67 mg/dL
LIPASE [2]: 10.17 u/L
PHOSPHORUS [2]: 11.72 mg/dL
POTASSIUM [2]: 6.76 MEQ/L
SODIUM [2]: 145.17 MEQ/L
TOTAL BILIRUBIN [2]: 0.2 mg/dL
TOTAL PROTEIN [2]: 6.15 G/DL
URIC ACID [2]: 2 mg/dL
ABSOLUTE BASOPHIL [3]: 0 CELLS/uL
ABSOLUTE EOSINOPHIL [3]: 124 CELLS/uL
ABSOLUTE LYMPHOCYTE [3]: 11451.33 CELLS/uL
ABSOLUTE MONOCYTE [3]: 0 CELLS/uL
ABSOLUTE SEGMENTED NEUTROPHIL [3]: 824.67 CELLS/uL
BASOPHIL [3]: 0%
EOSINOPHIL [3]: 1%
ERYTHROCYTE COUNT [3]: 5.24 x10E6/uL
HEMATOCRIT [3]: 34.07%
HEMOGLOBIN [3]: 12.73 G/DL
LEUKOCYTE COUNT [3]: 12.4 x10E3/uL
LYMPHOCYTE [3]: 92%
MEAN CORPUSCULAR HEMOGLOBIN [3]: 24.3 pg
MEAN CORPUSCULAR HEMOGLOBIN CONCENTRATION [3]: 37.37 G/DL
MEAN CORPUSCULAR VOLUME [3]: 65.07 fL
MONOCYTE [3]: 0%
NEUTROPHIL [3]: 7%
NUCLEATED RED BLOOD CELLS [3]: 0 /100WBC
PLATELET COUNT [3]: 1403.33 x10E3/uL
ALANINE AMINOTRANSFERASE [3]: 49 u/L
ALBUMIN [3]: 4.2 G/DL
ALKALINE PHOSPHATASE [3]: 411 u/L
ASPARTATE AMINOTRANSFERASE [3]: 73.33 u/L
BLOOD UREA NITROGEN [3]: 14.33 mg/dL
CARBON DIOXIDE [3]: 24 mmol/L
CHLORIDE [3]: 103 MEQ/L
CHOLESTEROL [3]: 75.33 mg/dL
CREATINE PHOSPHOKINASE [3]: 253.33 u/L
CREATININE [3]: 0.21 mg/dL
GLUCOSE [3]: 152.33 mg/dL
LIPASE [3]: 9 u/L
PHOSPHORUS [3]: 13.13 mg/dL
POTASSIUM [3]: 6.83 MEQ/L
SODIUM [3]: 143.67 MEQ/L
TOTAL BILIRUBIN [3]: 0.13 mg/dL
TOTAL PROTEIN [3]: 5.77 G/DL
URIC ACID [3]: 2.97 mg/dL
